# ChEMBL document CHEMBL1155486, “From 6-aminoquinolone antibacterials to 6-amino-7-thiopyranopyridinylquinolone ethyl esters as inhibitors of Staphylococcus aureus multidrug efflux pumps” (2010)
# Legend:
# Staphylococcus aureus [1] = experiment: Antibacterial activity against Staphylococcus aureus SA-1199B by EtBr efflux assay; assay type: functional
# [2] = molecular target: T1, Quinolone resistance protein NorA (Staphylococcus aureus) (UniProt P0A0J7); experiment: Inhibition of NorA in Staphylococcus aureus SA-1199B assessed as reduction in ethidium bromide efflux at 50 uM by fluorimetry; parameters: scale not given: the % may be the effect or the level left
# T1 sequence (whole entry): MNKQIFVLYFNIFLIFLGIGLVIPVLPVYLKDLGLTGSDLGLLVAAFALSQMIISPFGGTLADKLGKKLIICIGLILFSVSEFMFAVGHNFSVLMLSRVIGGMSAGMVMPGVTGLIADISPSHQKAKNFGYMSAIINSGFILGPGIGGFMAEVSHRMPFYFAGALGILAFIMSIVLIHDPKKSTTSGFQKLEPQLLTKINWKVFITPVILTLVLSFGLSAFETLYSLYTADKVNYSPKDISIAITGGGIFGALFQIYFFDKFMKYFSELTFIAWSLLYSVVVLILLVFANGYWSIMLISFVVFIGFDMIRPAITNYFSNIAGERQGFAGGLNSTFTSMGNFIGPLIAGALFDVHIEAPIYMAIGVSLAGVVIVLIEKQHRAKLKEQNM
# Staphylococcus aureus [3] = experiment: Antibacterial activity against Staphylococcus aureus K1305 bearing wild-type GyrA and E84K mutant GrlA by microdilution technique; assay type: functional
# Staphylococcus aureus [4] = experiment: Antibacterial activity against Staphylococcus aureus K1134 bearing wild-type GyrA and S80Y mutant GrlA by microdilution technique; assay type: functional
# Escherichia coli = experiment: Antibacterial activity against Escherichia coli ATCC 25922 by microdilution technique; assay type: functional
# Staphylococcus aureus [5] = experiment: Antibacterial activity against Staphylococcus aureus K1640 bearing S84L mutant GyrA and S80Y mutant GrlA by microdilution technique; assay type: functional
# Staphylococcus aureus [6] = experiment: Antibacterial activity against Staphylococcus aureus K1035 bearing wild-type GyrA and S80F mutant GrlA by microdilution technique; assay type: functional
# Staphylococcus aureus [7] = experiment: Antibacterial activity against Staphylococcus aureus SA-K1902 bearing norA- deficient mutation by microdilution technique; assay type: functional
# Staphylococcus aureus [8] = experiment: Antibacterial activity against wild-type norA expressing Staphylococcus aureus SA-1199 by microdilution technique; assay type: functional
# Staphylococcus aureus [9] = experiment: Antibacterial activity against Staphylococcus aureus K1628 bearing S84L mutant GyrA and S80F mutant GrlA by microdilution technique; assay type: functional
# Staphylococcus aureus [10] = experiment: Antibacterial activity against Staphylococcus aureus SA-1199B norA++ and A116E GrlA mutation by microdilution technique; assay type: functional
# Staphylococcus aureus [11] = experiment: Antibacterial activity against methicillin and ciprofloxacin-resistant Staphylococcus aureus 25A by microdilution technique; assay type: functional
# Staphylococcus aureus [12] = experiment: Antibacterial activity against Staphylococcus aureus SA-K1904 bearing norA++ efficient mutation by microdilution technique; assay type: functional
# Staphylococcus aureus [13] = experiment: Antibacterial activity against Staphylococcus aureus ATCC 25923 by microdilution technique; assay type: functional
Structure (SMILES),MIC (Staphylococcus aureus [1]) [µg/mL],Activity [2] [%],MIC (Staphylococcus aureus [3]) [µg/mL],MIC (Staphylococcus aureus [4]) [µg/mL],MIC (Escherichia coli) [µg/mL],MIC (Staphylococcus aureus [5]) [µg/mL],MIC (Staphylococcus aureus [6]) [µg/mL],MIC (Staphylococcus aureus [7]) [µg/mL],MIC (Staphylococcus aureus [8]) [µg/mL],MIC (Staphylococcus aureus [9]) [µg/mL],MIC (Staphylococcus aureus [10]) [µg/mL],MIC (Staphylococcus aureus [11]) [µg/mL],MIC (Staphylococcus aureus [12]) [µg/mL],MIC (Staphylococcus aureus [13]) [µg/mL]
CCOC(=O)c1cn(C2CC2)c2cc(N3CCC4=C(C3)C(=O)C(C)CS4)c(N)cc2c1=O (stereo unspecified),> 100,63.5,,,,,,,,,,,,
CC1CSC2=C(CN(c3cc4c(cc3F)c(=O)c(C(=O)O)cn4C3CC3)CC2)C1=O (stereo unspecified),,,1.25,1.25,8,> 10,1.25,0.16,0.08,> 10,0.16,32,0.16,0.31
CO/N=C1/C2=C(CCN(c3cc4c(cc3N)c(=O)c(C(=O)O)cn4C3CC3)C2)SCC1C (stereo unspecified),,,,,128,,,3.13,6.25,,6.25,4,3.13,4
CCOC(=O)c1cn(C2CC2)c2cc(N3CCC4=C(C3)C(O)CCS4)c(N)cc2c1=O (stereo unspecified),> 100,26.3,,,,,,,,,,,,
Cc1c(N2CCC3=C(C2)C(O)CCS3)c(N)cc2c(=O)c(C(=O)O)cn(C3CC3)c12 (stereo unspecified),,,,,> 128,,,> 100,> 100,,> 100,> 128,> 100,> 128
O=C(O)c1cn(C2CC2)c2cc(N3CCC4=C(C3)/C(=N/O)CCS4)c(F)cc2c1=O,,,,,1,,,0.63,0.63,,2.5,2,0.63,2
CO/N=C1\CCSC2=C1CN(c1c(N)cc3c(=O)c(C(=O)O)cn(C4CC4)c3c1C)CC2,,,1.25,2.5,16,> 10,1.25,0.31,0.31,> 10,0.31,32,0.31,0.16
COC(=O)[C@H]1[C@H]2C[C@@H]3c4[nH]c5cc(OC)ccc5c4CCN3C[C@H]2C[C@@H](OC(=O)c2cc(OC)c(OC)c(OC)c2)[C@@H]1OC,,84.8,,,,,,,,,,,,
Nc1cc2c(=O)c(C(=O)O)cn(C3CC3)c2cc1N1CCC2=C(C1)/C(=N/O)CCS2,,,,,2,,,1.56,1.56,,12.5,16,6.25,2
CCOC(=O)c1cn(C2CC2)c2c(C)c(N3CCC4=C(C3)C(=O)C(C)CS4)c(N)cc2c1=O (stereo unspecified),> 100,50.5,,,,,,,,,,,,
CCOC(=O)c1cn(C2CC2)c2c(C)c(N3CCC4=C(C3)C(O)CCS4)c(N)cc2c1=O (stereo unspecified),> 100,47.3,,,,,,,,,,,,
CO/N=C1/C2=C(CCN(c3c(N)cc4c(=O)c(C(=O)O)cn(C5CC5)c4c3C)C2)SCC1C (stereo unspecified),,,,,8,,,6.25,3.13,,3.13,8,6.25,16
COc1c(N2C[C@@H]3CCCN[C@@H]3C2)c(F)cc2c(=O)c(C(=O)O)cn(C3CC3)c12 [MOXIFLOXACIN],,,0.31,0.31,< 0.08,2.5,0.31,0.08,0.08,5,0.25,2,0.08,< 0.08
O=C1CCSC2=C1CN(c1cc3c(cc1F)c(=O)c(C(=O)O)cn3C1CC1)CC2,,,,,8,,,0.31,1.56,,3.13,> 128,0.63,0.08
Cc1c(N2CCC3=C(C2)C(=O)CCS3)c(N)cc2c(=O)c(C(=O)O)cn(C3CC3)c12,,,1.25,1.25,1,> 10,1.25,0.31,0.31,> 10,0.63,4,0.31,0.25
CO/N=C1/C2=C(CCN(c3cc4c(cc3F)c(=O)c(C(=O)O)cn4C3CC3)C2)SCC1C (stereo unspecified),,,,,64,,,2.5,2.5,,5,8,2.5,2
